Assay results: patent US20070259837A1, “Use of Non-Glucocorticoid Steroids for the Treatment of Muscular Dystrophy” (SANTHERA PHARMACEUTICALS (SCHWEIZ) AG, priority 2004, published 2007)
Like-named read-outs stand apart in the source and are kept apart here.

Tested on: utrophin protein in human muscle cells derived from DMD patients
Test: Cell-based ELISA for normalized utrophin protein level in primary human myotube cultures
Conditions: for % UTR vs. PDN (normalized utrophin protein as % of PDN-treated sister cultures): same experiment; for activity at 0.5 µM: Myotube, read-out: % UTR vs. DMSO (normalized utrophin protein over DMSO-solvent treated control)
Description: The method used to detect and determine utrophin-inducing activity of non-glucocorticoid steroids has been described previously (Courdier-Fruh, I., Barman, L., Briguet, A. & Meier, T.; 2002, Neuromuscul. Disord.; 12 Suppl:S95). Briefly, primary human muscle cell cultures were prepared according to standard protocols (Askanas V, Kwan H, Alvarez R B, Engel W K, Kobayashi T, Martinuzzi A, Hawkins E F., 1987, J Neurocytol., 16:523-537). Test compounds and the glucocorticoid 6α-methylprednisolone-21 sodium succinate (Pharmacia & Upjohn; Solu-Medrol®, PDN) as reference compound were applied at 500 nM final concentration as soon as myoblasts started to differentiate into myotubes. Incubation with the test compound was ended as soon as well differentiated myotubes have formed, typically resulting in an incubation time with a test compound for 3-7 days.
Normalized concentrations of utrophin protein in human muscle cells cultured in microtiter plates were determined by a cell-based enzyme-linked immunosorbent assay (ELISA) procedure that allows a successive readout for the cell density and utrophin protein level. For calibration, the cell density and differentiation was determined by absorbance measurements of the total dehydrogenase enzyme activity in each well using the colorimetric CellTiter 96®AQ One Solution Reagent Proliferation Assay (Promega) according to the manufacturer's recommendation. Subsequently, cells were fixed, washed, permeabilized with 0.5% (v/v) Triton X-100 and unspecific antibody binding-sites were blocked by standard procedures. Utrophin protein levels were determined immunologically with utrophin-specific primary antibodies (mouse monoclonal antibody to the amino terminal portion of utrophin, NCL-DRP2, Novocastra Laboratories) and with appropriate peroxidase-coupled secondary antibodies using QuantaBlu™ Fluorogenic Peroxidase Substrate Kit (Pierce) for detection. Fluorescence measurements were carried out with a multilabel counter (Wallac) at λex=325 nm and at λem=420 nm. The primary readout of this signal is presented in arbitrary units. For calibration, the arbitrary units representing the relative utrophin protein content of each well were divided by the corresponding cell-titer absorbance value to correct for cell density. For comparison between experiments, the cell-titer corrected readout for utrophin protein content in each well was expressed in percent of solvent treated control cultures (set to 100%). PDN was included in all experiments as reference glucocorticoid, N=3-5 for each compound tested.
Non-glucocorticoid test compounds, applied in a concentration of 500 nM, were regarded as “positive” in case the increase in the level of utrophin protein was at least 20% (mean value) over control cultures treated with the appropriate dilution of DMSO solvent as control and containing no test compound.
A range of different pharmaceutical compounds were tested for their ability to increase levels of utrophin protein in primary human myotube cultures. The cell-based ELISA protocol used to detect the level of utrophin protein is provided above and described in Courdier-Fruh, I., Barman, L., Briguet, A. & Meier, T, 2002, Neuromuscul. Disord.: 12, Suppl:S95. Briefly, fixed and permeabilized human muscle cells derived from DMD patients and cultured in 96-well cell culture plates were incubated with antibodies specific for utrophin at a dilution of 1:1'000 in blocking solution (phosphate buffered saline (PBS) supplemented with 2% fetal calf serum and 1% bovine serum albumin) for 10-15 hours at 4° C. Following several washing steps with 0.1% Triton X-100 in PBS, peroxidase-coupled secondary antibodies diluted 1:3'000 in blocking solution were applied in each well for 1-2 hours at room temperature. Signal detection, data acquisition and normalization was performed as described above and in Courdier-Fruh, I., Barman, L., Briguet, A. & Meier, T, 2002, Neuromuscul. Disord.: 12, Suppl:S95. […]

[1] = 500 nM compound, human muscle cultures, mean value, N=3-6

Compound	% UTR vs. PDN (normalized utrophin protein as % of PDN-treated sister cultures) [1]	activity at 0.5 µM (Homo sapiens)	activity at 0.5 µM [1]	inhibition of CDCA-mediated utrophin increase by glucocorticoid receptor antagonist RU38486 (500 nM CDCA + 500 nM RU38486 simultaneously, human DMD-patient derived muscle cells, FIG. 2)	utrophin protein levels normalized to cell density (UTR, relative units) compared to solvent-treated control (DMSO) (human DMD-patient derived muscle cells, 500 nM, FIG. 1 / FIG. 2, N=5-6, listed as CDCA)
CC(=O)O[C@@H]1CC[C@]2(C)C3C[C@H](OC(C)=O)[C@]4(C)C(C(C)CCC(=O)O)CCC4C3CC[C@@H]2C1 (some centres unmarked) [Example 3]	122%	144%	–	–	–
CC(=O)O[C@@H]1CC[C@]2(C)C3C(=O)C[C@]4(C)C(C(C)CCC(=O)O)CCC4C3CC[C@@H]2C1 (some centres unmarked) [Example 4]	112%	130%	–	–	–
CC(CCC(=O)O)C1CCC2C3CC(=O)[C@@H]4C[C@H](O)CC[C@]4(C)C3CC[C@]12C (some centres unmarked) [Example 5]	108%	–	136%	–	–
CC(CCC(=O)O)C1CCC2C3CC[C@@H]4C[C@H](OC(=O)c5ccccc5)CC[C@]4(C)C3C(=O)C[C@]12C (some centres unmarked) [Example 6]	106%	123%	–	–	–
CC(=O)O[C@@H]1CC[C@]2(C)C3CC[C@]4(C)C(C(C)CCC(=O)O)CCC4C3CC[C@@H]2C1 (some centres unmarked) [Example 7]	104%	121%	–	–	–
CC(CCC(=O)O)C1CCC2C3CC[C@@H]4CC(=O)CC[C@]4(C)C3CC[C@]12C (some centres unmarked) [Example 8]	99%	–	120%	–	–
CC(CCC(=O)O)C1CCC2C3CC[C@@H]4C[C@H](O)CC[C@]4(C)C3CC[C@]12C (some centres unmarked) [Example 9]	98%	–	119%	–	–
CC(CCC(=O)O)C1CCC2C3C(CC[C@]12C)[C@@]1(C)CC[C@@H](O)C[C@H]1C[C@@H]3O (some centres unmarked) [Example 10]	96%	121%	–	–	–
C[C@H](CCC(=O)O)[C@H]1CC[C@H]2[C@@H]3[C@H](O)C[C@@H]4C[C@H](O)CC[C@]4(C)[C@H]3CC[C@]12C [Example 11, 3α,7α-dihydroxy-5β-cholanic acid]	81%	172%	–	not inhibited	significantly increased
CC(CCC(=O)O)C1CCC2C3CC=C4C[C@H](O)CC[C@]4(C)C3CC[C@]12C (some centres unmarked) [Example 13]	96%	126%	–	–	–
CC(=O)O[C@H]1CC[C@]2(C)C3C(=O)C[C@@]4(C)[C@H](C(C)CCC(=O)O)CC[C@]4(C)C3C(=O)CC2C1(C)C (some centres unmarked) [Example 14]	92%	115%	–	–	–
CC(CCC(=O)O)C1CCC2C3C(=O)C[C@@H]4CC(=O)CC[C@]4(C)C3CC(=O)[C@]12C (some centres unmarked) [Example 15]	92%	–	117%	–	–
C[C@H](C(=O)O)C1CCC2C3CC=C4C[C@H](O)CC[C@]4(C)C3CC[C@@]21C (some centres unmarked) [Example 16]	104%	136%	–	–	–
CCOC(=O)[C@H]1CCC2C3CC=C4C[C@@H](OC(=O)c5ccccc5)CC[C@]4(C)C3CC[C@@]21C (some centres unmarked) [Example 17]	103%	120%	–	–	–
C[C@]12CCC(=O)C=C1CCC1C2CC[C@]2(C)[C@@H](C(=O)O)CC[C@]12O (some centres unmarked) [Example 18]	101%	120%	–	–	–
CC(=O)O[C@@H]1CC[C@]2(C)C3CC[C@]4(C)[C@@H](C(=O)O)[C@@H](OC(C)=O)C[C@]4(O)C3CC[C@@H]2C1 (some centres unmarked) [Example 19]	98%	123%	–	–	–
CC1CC[C@@]2(OC1)O[C@H]1C[C@H]3[C@@H]4CC[C@H]5C[C@@H](OC(=O)c6ccccc6)CC[C@]5(C)C4=CC(=O)[C@]3(C)C1[C@@H]2C (some centres unmarked) [Example 20]	113%	131%	–	–	–
CC(=O)O[C@H]1CC[C@]2(C)C3C[C@@H](O)[C@]4(C)C5[C@H](C[C@H]4[C@@H]3CC[C@H]2C1)O[C@]1(CCC(C)CO1)[C@H]5C (some centres unmarked) [Example 21]	105%	130%	–	–	–
CC1CC[C@@]2(OC1)O[C@H]1C[C@H]3[C@@H]4CC[C@H]5C[C@@H](OC(=O)c6ccccc6)CC[C@]5(C)C4=CC[C@]3(C)C1[C@@H]2C (some centres unmarked) [Example 22]	106%	123%	–	–	–
CC(=O)O[C@H]1CC[C@]2(C)C3=CC(=O)[C@]4(C)C5[C@H](C[C@H]4[C@@H]3CC[C@H]2C1)O[C@]1(CCC(C)CO1)[C@H]5C (some centres unmarked) [Example 23]	103%	129%	–	–	–
CC(=O)O[C@H]1CC[C@]2(C)C3C(=O)[C@@H](OC(C)=O)[C@]4(C)C5[C@H](C[C@H]4[C@@H]3CC[C@H]2C1)O[C@]1(CCC(C)CO1)[C@H]5C (some centres unmarked) [Example 24]	103%	134%	–	–	–
CC(=O)O[C@H]1CC[C@]2(C)C3C=C[C@]4(C)C5[C@H](C[C@H]4[C@@H]3CC[C@H]2C1)O[C@]1(CCC(C)CO1)[C@H]5C (some centres unmarked) [Example 25]	102%	129%	–	–	–
COC(=O)CCC(=O)O[C@H]1CC[C@]2(C)C3C(=O)[C@@H](O)[C@]4(C)C5[C@H](C[C@H]4[C@@H]3CC[C@H]2C1)O[C@]1(CCC(C)CO1)[C@H]5C (some centres unmarked) [Example 26]	98%	123%	–	–	–
CC1CC[C@@]2(OC1)O[C@H]1C[C@H]3[C@@H]4CC[C@H]5C[C@@H](O)CC[C@]5(C)C4CC(=O)[C@]3(C)C1[C@@H]2C (some centres unmarked) [Example 27]	97%	122%	–	–	–
CC1CC[C@@]2(OC1)O[C@H]1C[C@H]3[C@@H]4CC[C@H]5CC(=O)CC[C@]5(C)C4CC[C@]3(C)C1[C@@H]2C (some centres unmarked) [Example 28]	93%	120%	–	–	–
CC1CC[C@@]2(OC1)O[C@H]1C[C@H]3[C@@H]4CC[C@H]5C[C@@H](O)CC[C@]5(C)C4CC[C@]3(C)C1[C@@H]2C (some centres unmarked) [Example 29]	91%	120%	–	–	–
CC(C)CCCC(C)[C@H]1CCC2C3C(=O)C[C@H]4C[C@@H](OC(=O)c5ccccc5)CC[C@]4(C)C3CC[C@@]21C (some centres unmarked) [Example 30]	109%	127%	–	–	–
